Source: EP4122463A1, “DRUG IN THE FORM OF A COMPLEX OF 3,3'-DIINDOLYLMETHANE WITH Beta-CYCLODEXTRIN” (Kiselev, Vsevolod Ivanovich, priority 2020, dated 2021)

How the values were obtained:
[1] = Concentration of 3,3'-diindolylmethane in the blood plasma of patients; assay type: in vivo; conditions: DIM dosage 100 mg
Excerpt: (§1) In clinical studies, effectiveness of a water-soluble complex based on cyclodextrins and crystalline 3,3'-diindolylmethane in equal doses was compared. […]

[2] = cited from earlier work
[3] = Clinical comparison of effectiveness of water-soluble complexes and crystalline DIM in equal doses; assay type: in vivo; conditions: all studied groups of patients
Excerpt: as §1

[4] = Solubility of 3,3'-diindolylmethane as a function of concentration of various cyclodextrins; assay type: physicochemical; conditions: solutions of α-, β- and γ-cyclodextrin, figure 2
Excerpt: Solubility of 3,3'-diindolylmethane was investigated as a function of concentration of various cyclodextrins. The following were used in the experiments: • α-cyclodextrin (αCD); • β-cyclodextrin (βCD); • γ-cyclodextrin (γCD).

The concentration of DIM in plasma [1]: less than 30 ng / ml
Structure (SMILES): c1ccc2c(Cc3c[nH]c4ccccc34)c[nH]c2c1 [DIM crystalline, 3,3'-diindolylmethane]
Solubility of 3,3'-diindolylmethane in DMSO [2]: 18-20%
effectiveness (dynamics in patients) [3]: absence of such
maximum solubility of 3,3'-diindolylmethane [4]: maximum solubility of 3,3'-diindolylmethane is achieved in combination with β-cyclodextrin (βCD)
